Common to all, as to format: biochemical
The target of one assay is T1, CDK1/cyclinB1 (Homo sapiens, UniProt P06493).
T1 construct: purchased Carna Biosciences 04-102
Description: Cyclin-dependent kinase activity assay (continuous ATP coupling assay), CDK1/cyclinB1. Conditions: CDK1/cyclinB1 10 nM, ATP 200 μM, Histone1 copeptide 100 μM, 15 min preincubation, pH 7.5, 1% DMSO. An outline of the steps:
(§1)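 PK/LDH-coupled continuous assay, ATP at each kinase's Km, Tris pH 7.5 with 1% DMSO final; enzyme preincubated 15 min with compound (10 μM to 0.05 nM, 1:3), NADH fluorescence decrease (ex 340/em 460) gave velocities. IC50 by 4-variable fit; Ki by quadratic/Morrison fit.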

The target in another assay is T2, CDK4/cyclinD3 (Homo sapiens, UniProt P11802).
T2 construct: purchased Carna Biosciences 04-105
Description: Cyclin-dependent kinase activity assay (continuous ATP coupling assay), CDK4/cyclinD3. Conditions: CDK4/cyclinD3 60 nM, ATP 500 μM, Rb copeptide 500 μM, 15 min preincubation, pH 7.5, 1% DMSO. The procedure, abridged:
as §1

The target in a further assay is T3, CDK2/cyclinE1 (Homo sapiens, UniProt P24941).
T3 construct: purchased Carna Biosciences 04-165
Description: Cyclin-dependent kinase activity assay (continuous ATP coupling assay), CDK2/cyclinE1. Conditions: CDK2/cyclinE1 5 nM, ATP 300 μM, Rb copeptide 100 μM, 15 min preincubation, pH 7.5, 1% DMSO. The procedure, abridged:
as §1

The next assay addresses T4, CDK6/cyclinD3 (Homo sapiens, UniProt Q00534).
T4 construct: purchased Carna Biosciences 04-107
Description: Cyclin-dependent kinase activity assay (continuous ATP coupling assay), CDK6/cyclinD3. Conditions: CDK6/cyclinD3 25 nM, ATP 500 μM, Rb copeptide 500 μM, 15 min preincubation, pH 7.5, 1% DMSO. The procedure, abridged: as §1

Bounds are passed on as bounds.

T4 sequence (Q00534 whole entry): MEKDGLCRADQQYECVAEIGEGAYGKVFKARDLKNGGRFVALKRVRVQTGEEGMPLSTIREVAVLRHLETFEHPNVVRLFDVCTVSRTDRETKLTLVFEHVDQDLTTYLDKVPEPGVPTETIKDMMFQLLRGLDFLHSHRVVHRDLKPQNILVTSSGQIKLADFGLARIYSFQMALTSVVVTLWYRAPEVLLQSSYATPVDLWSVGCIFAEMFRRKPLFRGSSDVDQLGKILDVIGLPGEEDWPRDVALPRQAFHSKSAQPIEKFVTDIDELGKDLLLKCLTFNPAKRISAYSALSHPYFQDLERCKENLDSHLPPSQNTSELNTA
T4 sequence (P30281 whole entry partner): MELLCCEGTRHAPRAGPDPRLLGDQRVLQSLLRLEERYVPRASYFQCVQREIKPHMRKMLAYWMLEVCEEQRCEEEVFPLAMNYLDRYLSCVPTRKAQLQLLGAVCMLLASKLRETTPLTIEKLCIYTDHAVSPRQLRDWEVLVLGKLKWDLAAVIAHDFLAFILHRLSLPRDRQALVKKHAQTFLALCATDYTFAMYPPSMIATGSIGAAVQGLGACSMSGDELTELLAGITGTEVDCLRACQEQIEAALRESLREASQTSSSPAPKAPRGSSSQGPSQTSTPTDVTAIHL
T1 sequence (P06493 whole entry): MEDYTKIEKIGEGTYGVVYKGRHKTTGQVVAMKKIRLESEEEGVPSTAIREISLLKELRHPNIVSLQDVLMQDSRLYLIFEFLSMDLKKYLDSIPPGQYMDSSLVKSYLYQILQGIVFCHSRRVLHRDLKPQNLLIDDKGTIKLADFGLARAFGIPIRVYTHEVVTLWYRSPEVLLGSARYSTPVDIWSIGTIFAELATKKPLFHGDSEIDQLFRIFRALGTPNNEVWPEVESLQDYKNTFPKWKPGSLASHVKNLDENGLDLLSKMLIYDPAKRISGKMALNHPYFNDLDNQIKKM
T1 sequence (P14635 whole entry partner): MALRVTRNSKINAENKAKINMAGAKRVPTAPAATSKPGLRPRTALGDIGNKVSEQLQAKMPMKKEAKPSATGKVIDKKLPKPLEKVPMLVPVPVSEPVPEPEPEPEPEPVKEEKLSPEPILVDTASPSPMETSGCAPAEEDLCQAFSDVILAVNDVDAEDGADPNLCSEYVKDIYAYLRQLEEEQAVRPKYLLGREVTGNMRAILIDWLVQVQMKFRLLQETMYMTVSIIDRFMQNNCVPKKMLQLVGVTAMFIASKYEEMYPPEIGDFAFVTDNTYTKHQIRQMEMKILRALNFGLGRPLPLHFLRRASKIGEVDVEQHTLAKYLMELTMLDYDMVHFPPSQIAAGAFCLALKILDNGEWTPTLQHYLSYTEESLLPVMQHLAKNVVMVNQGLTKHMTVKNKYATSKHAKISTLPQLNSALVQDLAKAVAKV
T2 sequence (P11802 whole entry): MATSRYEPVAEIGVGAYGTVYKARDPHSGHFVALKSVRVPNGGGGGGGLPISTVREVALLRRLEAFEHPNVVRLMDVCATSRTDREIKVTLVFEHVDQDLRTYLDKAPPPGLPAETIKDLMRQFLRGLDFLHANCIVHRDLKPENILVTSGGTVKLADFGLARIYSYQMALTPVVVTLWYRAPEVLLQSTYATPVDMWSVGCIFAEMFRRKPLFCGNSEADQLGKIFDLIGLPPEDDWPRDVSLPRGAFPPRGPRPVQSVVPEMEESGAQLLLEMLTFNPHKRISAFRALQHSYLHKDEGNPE
T2 sequence (P30281 whole entry partner): as the sequence (P30281 whole entry partner) above

What is called IC50 is the concentration needed to halve the response being measured. Low values mean greater potency in that assay, high ones weaker potency in that assay. Take `CNS(=O)(=O)c1ccc(Nc2ncc(C(F)(F)F)c(-n3cc(CN4CCNCC4)cn3)n2)cc1` [Example 84]: the IC50 is not below 100 nM at CDK1/cyclinB1, not below 100 nM against CDK4/cyclinD3, 10 to 100 nM against CDK2/cyclinE1 and not below 100 nM at CDK6/cyclinD3.

With `CNS(=O)(=O)c1ccc(Nc2ncc(C(F)(F)F)c(-n3cc(C4CN(C)C4)cn3)n2)cc1` [Example 97], the IC50 is 10 to 100 nM on CDK1/cyclinB1, 10 to 100 nM against CDK4/cyclinD3, not above 10 nM against CDK2/cyclinE1 and not below 100 nM on CDK6/cyclinD3.

Consider `O=S(=O)(NCCO)c1ccc(Nc2ncc(Cl)c(-n3cccn3)n2)cc1` [Example 117], for which the IC50 at CDK1/cyclinB1 is 10 to 100 nM; against CDK4/cyclinD3, not below 100 nM; on CDK2/cyclinE1 it was not above 10 nM; against CDK6/cyclinD3 it was not below 100 nM.

Turning to `NS(=O)(=O)c1ccc(Nc2ncc(C(F)(F)F)c(-n3cccn3)n2)cc1` [Example 18], the IC50 at CDK1/cyclinB1 was not below 100 nM; on CDK4/cyclinD3, not below 100 nM; against CDK2/cyclinE1, not above 10 nM; against CDK6/cyclinD3 it was not below 100 nM.

Regarding `O=S(=O)(NCCOC(F)(F)F)c1ccc(Nc2ncc(C(F)(F)F)c(-n3cccn3)n2)cc1` [Example 128], the IC50 on CDK1/cyclinB1, on CDK4/cyclinD3, against CDK2/cyclinE1 and against CDK6/cyclinD3 was not below 100 nM each time.

For the compound `CNS(=O)(=O)c1ccc(Nc2ncc(C(F)(F)F)c(-n3cc(C4CCCC4)cn3)n2)cc1` [Example 11, 4-((4-(4-cyclopentyl-1H-pyrazol-1-yl)-5-(trifluoromethyl)pyrimidin-2-yl)amino)-N-methylbenzenesulfonamide], the IC50 against CDK1/cyclinB1 was 10 to 100 nM; at CDK4/cyclinD3 it was not above 10 nM; on CDK2/cyclinE1 it was not above 10 nM; at CDK6/cyclinD3 it was 10 to 100 nM.

For `CC1(Nc2ncc(C(F)(F)F)c(-n3cccn3)n2)CCN(S(C)(=O)=O)CC1` [Example 29], the concentration for half-maximal inhibition (IC50) on CDK1/cyclinB1, against CDK4/cyclinD3, on CDK2/cyclinE1 and on CDK6/cyclinD3 was not below 100 nM throughout.

For the compound `O=S(=O)(NC1COC1)c1ccc(Nc2ncc(C(F)(F)F)c(-n3cccn3)n2)cc1` [Example 40], the IC50 was not below 100 nM on CDK1/cyclinB1, not below 100 nM against CDK4/cyclinD3, not above 10 nM at CDK2/cyclinE1 and not below 100 nM at CDK6/cyclinD3.

For the compound `O=S(=O)(NCCO)c1ccc(Nc2ncc(C(F)(F)F)c(-n3cccn3)n2)c(F)c1` [Example 124], the IC50 against CDK1/cyclinB1 was not below 100 nM; on CDK4/cyclinD3 it was not below 100 nM; at CDK2/cyclinE1, not above 10 nM; on CDK6/cyclinD3 it was not below 100 nM.

On to `CNS(=O)(=O)c1ccc(Nc2ncc(C#N)c(-n3cccn3)n2)cc1` [Example 26], for which the IC50 was not below 100 nM against CDK1/cyclinB1, not below 100 nM on CDK4/cyclinD3, 10 to 100 nM at CDK2/cyclinE1 and not below 100 nM against CDK6/cyclinD3.

With `CNS(=O)(=O)c1ccc(Nc2ncc(C(F)(F)F)c(-n3cc(C4CCN(S(C)(=O)=O)CC4)cn3)n2)cc1` [Example 81], the IC50 against CDK1/cyclinB1, against CDK4/cyclinD3, at CDK2/cyclinE1 and against CDK6/cyclinD3 was 10 to 100 nM in each case.

`O=S(=O)(NCCO)c1ccc(Nc2ncc(C(F)(F)F)c(-n3cccn3)n2)cc1F` [Example 123]: the IC50 on CDK1/cyclinB1 is not below 100 nM; on CDK4/cyclinD3 it was not below 100 nM; against CDK2/cyclinE1 it was 10 to 100 nM; at CDK6/cyclinD3, not below 100 nM.

Regarding `CNS(=O)(=O)c1ccc(Nc2ncc(C(F)(F)F)c(-n3cc(CCC(C)(C)O)cn3)n2)cc1` [Example 3], the IC50 is 10 to 100 nM against CDK1/cyclinB1, 10 to 100 nM on CDK4/cyclinD3, 10 to 100 nM at CDK2/cyclinE1 and not below 100 nM against CDK6/cyclinD3.

On to `CNS(=O)(=O)c1ccc(Nc2ncc(F)c(-n3cc(CC(C)(C)O)cn3)n2)cc1` [Example 62], for which the IC50 is not below 100 nM on CDK1/cyclinB1, 10 to 100 nM at CDK4/cyclinD3, 10 to 100 nM against CDK2/cyclinE1 and not below 100 nM at CDK6/cyclinD3.

As for `Cc1cnc(Nc2ccc(S(=O)(=O)NCCO)cc2)nc1-n1cccn1` [Example 114], the IC50 was not below 100 nM against CDK1/cyclinB1, not below 100 nM at CDK4/cyclinD3, 10 to 100 nM on CDK2/cyclinE1 and not below 100 nM against CDK6/cyclinD3.

As to `CNS(=O)(=O)c1cccc(Nc2ncc(C(F)(F)F)c(-n3cccn3)n2)c1` [Example 122], the IC50 at CDK1/cyclinB1, against CDK4/cyclinD3, at CDK2/cyclinE1 and on CDK6/cyclinD3 was not below 100 nM each time.

Regarding `CNS(=O)(=O)c1ccc(Nc2ncc(C(F)(F)F)c(-n3cc(CC(C)(C)O)cn3)n2)cc1` [Example 2, 4-((4-(4-(2-hydroxy-2-methylpropyl)-1H-pyrazol-1-yl)-5-(trifluoromethyl)pyrimidin-2-yl)amino)-N-methylbenzenesulfonamide], the IC50 on CDK1/cyclinB1 is 10 to 100 nM; at CDK4/cyclinD3 it was 10 to 100 nM; on CDK2/cyclinE1, not above 10 nM; at CDK6/cyclinD3, 10 to 100 nM.

Regarding `CNS(=O)(=O)c1ccc(Nc2ncc(C(F)(F)F)c(-n3cc(C4CCCN4)cn3)n2)cc1` (single isomer, unassigned) [Example 92], the IC50 was 10 to 100 nM against CDK1/cyclinB1, not above 10 nM on CDK4/cyclinD3, not above 10 nM against CDK2/cyclinE1 and 10 to 100 nM on CDK6/cyclinD3.

Turning to `CNS(=O)(=O)c1ccc(Nc2ncc(C(F)(F)F)c(-n3cc(F)cn3)n2)cc1` [Example 45], the IC50 against CDK1/cyclinB1 was not below 100 nM; on CDK4/cyclinD3, not below 100 nM; against CDK2/cyclinE1, 10 to 100 nM; on CDK6/cyclinD3, not below 100 nM.

On to `O=S(=O)(NCCO)c1ccc(Nc2ncc(C(F)(F)F)c(-n3cccn3)n2)nc1` [Example 137], for which the IC50 at CDK1/cyclinB1, against CDK4/cyclinD3, against CDK2/cyclinE1 and against CDK6/cyclinD3 was not below 100 nM throughout.

For `CNS(=O)(=O)c1ccc(Nc2ncc(C(F)(F)F)c(-n3cc(C)cn3)n2)cc1` [Example 46], the IC50 is not below 100 nM against CDK1/cyclinB1, 10 to 100 nM at CDK4/cyclinD3, not above 10 nM against CDK2/cyclinE1 and not below 100 nM against CDK6/cyclinD3.

In the case of `CNS(=O)(=O)c1ccc(Nc2ncc(C(F)(F)F)c(-n3ccc(CC(C)(C)O)n3)n2)cc1` [Example 4], the IC50 was not below 100 nM against CDK1/cyclinB1, not below 100 nM on CDK4/cyclinD3, 10 to 100 nM against CDK2/cyclinE1 and not below 100 nM on CDK6/cyclinD3.

With `[2H]C([2H])([2H])NS(=O)(=O)c1ccc(Nc2ncc(C(F)(F)F)c(-n3ccc(C(F)(F)F)n3)n2)cc1` [Example 54], the IC50 was not below 100 nM against CDK1/cyclinB1, not below 100 nM on CDK4/cyclinD3, 10 to 100 nM against CDK2/cyclinE1 and not below 100 nM on CDK6/cyclinD3.

As for `CNS(=O)(=O)c1ccc(Nc2ncc(C(F)(F)F)c(-n3ccc(C4CC4)n3)n2)cc1` [Example 56], the IC50 against CDK1/cyclinB1, against CDK4/cyclinD3, against CDK2/cyclinE1 and at CDK6/cyclinD3 was not below 100 nM each time.

`CNS(=O)(=O)c1ccc(Nc2ncc(C(F)(F)F)c(-n3nccc3C3CC3)n2)cc1` [Example 57]: the IC50 was not below 100 nM against CDK1/cyclinB1, not below 100 nM against CDK4/cyclinD3, 10 to 100 nM at CDK2/cyclinE1 and not below 100 nM against CDK6/cyclinD3.

Consider `[2H]C([2H])([2H])NS(=O)(=O)c1ccc(Nc2ncc(C(F)(F)F)c(-n3cc(CCO)cn3)n2)cc1` [Example 10], for which the IC50 was 10 to 100 nM at CDK1/cyclinB1, 10 to 100 nM at CDK4/cyclinD3, not above 10 nM at CDK2/cyclinE1 and 10 to 100 nM against CDK6/cyclinD3.

For `CNS(=O)(=O)c1ccc(Nc2ncc(C(F)F)c(-n3cccn3)n2)cc1` [Example 20], the IC50 was not below 100 nM on CDK1/cyclinB1, not below 100 nM against CDK4/cyclinD3, 10 to 100 nM against CDK2/cyclinE1 and not below 100 nM against CDK6/cyclinD3.

For `CNS(=O)(=O)c1ccc(Nc2ncc(C(F)(F)F)c(-n3cc(C(C)(C)CO)cn3)n2)cc1` [Example 59], the IC50 against CDK1/cyclinB1 is 10 to 100 nM; against CDK4/cyclinD3, 10 to 100 nM; against CDK2/cyclinE1, not above 10 nM; at CDK6/cyclinD3, 10 to 100 nM.

Consider `CNS(=O)(=O)c1ccc(Nc2ncc(C(F)(F)F)c(-n3cc(CC(C)(C)N)cn3)n2)cc1` [Example 72, 4-[[4-[4-(2-amino-2-methyl-propyl)pyrazol-1-yl]-5-(trifluoromethyl)pyrimidin-2-yl]amino]-N-methyl-benzene sulfonamide], for which the IC50 against CDK1/cyclinB1 was 10 to 100 nM; against CDK4/cyclinD3, 10 to 100 nM; against CDK2/cyclinE1 it was not above 10 nM; against CDK6/cyclinD3 it was not below 100 nM.

Take `CS(=O)(=O)N1CCC(Nc2ncc(C(F)(F)F)c(-n3cccn3)n2)CC1` [Example 19]: the IC50 on CDK1/cyclinB1 is not below 100 nM; at CDK4/cyclinD3, 10 to 100 nM; on CDK2/cyclinE1, not above 10 nM; on CDK6/cyclinD3 it was 10 to 100 nM.

As for `CNS(=O)(=O)c1ccc(Nc2ncc(F)c(-n3cccn3)n2)cc1` [Example 21], the IC50 was not below 100 nM against CDK1/cyclinB1, not below 100 nM against CDK4/cyclinD3, 10 to 100 nM at CDK2/cyclinE1 and not below 100 nM against CDK6/cyclinD3.

For `CNS(=O)(=O)c1ccc(Nc2ncc(C(F)(F)F)c(-n3cc([C@H]4C[C@H](O)C4)cn3)n2)cc1` [Example 106, 4-((4-(4-((1r,3r)-3-hydroxycyclobutyl)-1H-pyrazol-1-yl)-5-(trifluoromethyl)pyrimidin-2-yl)amino)-N-methylbenzenesulfonamide], the IC50 is not below 100 nM at CDK1/cyclinB1, not below 100 nM on CDK4/cyclinD3, 10 to 100 nM on CDK2/cyclinE1 and not below 100 nM against CDK6/cyclinD3.

Turning to `O=S(=O)(NCCO)c1ccc(Nc2ncc(F)c(-n3cccn3)n2)cc1` [Example 115], the IC50 at CDK1/cyclinB1 was not below 100 nM; on CDK4/cyclinD3, not below 100 nM; against CDK2/cyclinE1, 10 to 100 nM; against CDK6/cyclinD3, not below 100 nM.

(Values after patent publication US20260308145A1, “CDK2 INHIBITORS AND METHODS OF USING SAME” (Shenzhen lonova Life Science Co., Ltd., priority 2023, published 2026).)
